Measured values from ChEMBL document CHEMBL3045056, “Structures and Biological Activities of Phytotoxins Produced by the Plant Pathogenic Fungus Bipolaris cynodontis cynA” (J Pestic Sci, 1998).
Calls of active or inactive are those of the source. The rule behind the calls is not given here.

Tests used:
Oryza sativa = experiment: Phytotoxicity in Oryza sativa (rice) seedlings assessed as assessed as inhibition of root growth at 100 ppm at 26 degC for 72 hr; type: functional, organism-based
[1] = Octanol-water partition coefficient, log K of the compound by reversed-phase HPLC; type: physicochemical; settings: read-out: log K
Lolium multiflorum = experiment: Phytotoxicity against Lolium multiflorum (Italian ryegrass) seedlings assessed as inhibition of root growth at 100 ppm at 26 degC for 72 hr; type: functional, organism-based

For `CC[C@H](C)[C@@H](O)[C@@H](C)C1=C(CC(C)=O)C(=O)C2=C(O[C@]3(C)CC[C@H]4O[C@@H](C(C)(C)O)CC[C@]4(C)[C@H]3[C@@H]2O)[C@]1(O)OC` [COCHLIOQUINOL III], the inhibition (Oryza sativa) was “Active”, the logP [1] was 0.31 and the inhibition (Lolium multiflorum) was “Active”.
For `CC[C@H](C)[C@@H](O)[C@@H](C)C1=CC(=O)C2=C(O[C@]3(C)CC[C@H]4O[C@@H](C(C)(C)O)CC[C@]4(C)[C@H]3[C@@H]2O)[C@]1(O)CC(C)=O` [COCHLIOQUINOL II], the inhibition (Oryza sativa) was “Active”, the logP [1] was -0.05 and the inhibition (Lolium multiflorum) was “Active”.
In the case of `CC[C@H](C)C(=O)[C@@H](C)C1=CC(=O)C2=C(O[C@]3(C)CC[C@H]4O[C@@H](C(C)(C)O)CC[C@]4(C)[C@H]3[C@@H]2O)[C@]1(O)CC(C)=O` [COCHLIOQUINOL], the inhibition (Oryza sativa) is reported as “Active”, the logP [1] is reported as -0.238 and the inhibition (Lolium multiflorum) is reported as “Active”.
With `CC[C@H](C)[C@@H](OC(C)=O)[C@@H](C)C1=CC(=O)C2=C(O[C@]3(C)CC[C@H]4O[C@@H](C(C)(C)O)CC[C@]4(C)[C@H]3[C@@H]2O)C1=O` [COCHLIOQUINONE A] the inhibition (Oryza sativa) was “Active”, the logP [1] was 0.337 and the inhibition (Lolium multiflorum) was “Active”.
For `CC[C@H](C)C(=O)[C@@H](C)C1=CC(=O)C2=C(O[C@]3(C)CC[C@H]4O[C@@H](C(C)(C)O)CC[C@]4(C)[C@H]3C2)C1=O` [COCHLIOQUINONE B], the inhibition (Oryza sativa) was “Active”, the logP [1] was 0.437 and the inhibition (Lolium multiflorum) was “Active”.
In the case of `CC[C@H](C)C(=O)[C@@H](C)C1=CC(=O)C2=C(O[C@]3(C)CC[C@H]4O[C@@H](C(C)(C)O)CC[C@]4(C)[C@H]3[C@@H]2O)C1=O` [COCHLIOQUINONE C], the inhibition (Oryza sativa) is reported as “Active”, the logP [1] is reported as 0.091 and the inhibition (Lolium multiflorum) is reported as “Active”.
In the case of `C/C=C(\C)C(=O)[C@@H](C)C1=CC(=O)C2=C(O[C@]3(C)CC[C@H]4O[C@@H](C(C)(C)O)CC[C@]4(C)[C@H]3C2)C1=O` [COCHLIOQUINONE D], the inhibition (Oryza sativa) is reported as “Active”, the logP [1] is reported as 0.287 and the inhibition (Lolium multiflorum) is reported as “Active”.
For `CC[C@H](C)C(=O)[C@@H](C)C1=CC(=O)C2=C(O[C@]3(C)CC[C@H]4O[C@@H](C(C)(C)O)C[C@H](O)[C@]4(C)[C@H]3C2)C1=O` [COCHLIOQUINONE E], the inhibition (Oryza sativa) was “Active”, the logP [1] was 0.013 and the inhibition (Lolium multiflorum) was “Active”.
In the case of `CC[C@H](C)[C@@H](OC(C)=O)[C@@H](C)c1cc(O)c2c(c1O)O[C@]1(C)CC[C@H]3O[C@@H](C(C)(C)O)CC[C@]3(C)[C@H]1C2=O` [ISOCOCHLIOQUINONE A], the inhibition (Oryza sativa) is reported as “Active”, the logP [1] is reported as 0.699 and the inhibition (Lolium multiflorum) is reported as “Active”.
In the case of `CC[C@H](C)C(=O)[C@@H](C)c1cc(O)c2c(c1O)O[C@]1(C)CC[C@H]3O[C@@H](C(C)(C)O)CC[C@]3(C)[C@H]1C2=O` [ISOCOCHLIOQUINONE C], the inhibition (Oryza sativa) is reported as “Active”, the logP [1] is reported as 0.482 and the inhibition (Lolium multiflorum) is reported as “Active”.
For `C/C=C(\C)[C@@H](OC(C)=O)[C@@H](C)C1=CC(=O)C2=C(O[C@]3(C)CC[C@H]4O[C@@H](C(C)(C)O)CC[C@]4(C)[C@H]3[C@@H]2O)C1=O` [STEMPHONE], the inhibition (Oryza sativa) was “Active”, the logP [1] was 0.224 and the inhibition (Lolium multiflorum) was “Active”.
